In US20250177347A1, “SCLAREOL OR SCLAREOLIDE FOR USE IN THE TREATMENT OF INFLAMMATORY SKIN CONDITIONS” (ISP Investments LLC, priority 2022, published 2025):
≈ marks a conversion by molar mass, not a printed value. Values belong to the molecule of their own block, whether it stands above or below them.

Assays:
C. albicans KCTC7965 = details: cited from earlier work
[1] = test system: C. tropicalis var. tropicalis KCTC17762; details: cited from earlier work
[2] = test system: C. parapsilosis var. parapsilosis KACC45480; details: cited from earlier work
[3] = test system: C. parapsilosis KACC49573; details: cited from earlier work
C. glabrata KCTC7219 = details: cited from earlier work
C. auris KCTC17809 = details: cited from earlier work
Malassezia restricta = test: Broth microdilution MIC assay (EUCAST guidelines, slight modifications), resazurin fluorescence; format: cell-based; details: 48 h-60 h at 34° C.
Method: Objective: Sclareolide antifungal potential on Malassezia restricta was evaluated by the broth microdilution method.
Protocol: Malassezia restricta was routinely grown on modified Leeman-Notman (mLN) agar. The broth microdilution assay was performed following EUCAST guidelines (www.eucast.org) with slight modifications. Between five and ten colonies were suspended in a modified RPMI 1640 media supplemented with resazurin at a D.O (Density Optical) of 0.1. In a 96 well plate, serial dilutions of sclareolide (0.00023% to 0.12%) from a 24% stock solution in DMSO, and ketoconazole (0.001 to 0.25 μg/ml) solutions were prepared in modified RPMI 1640 culture medium. An equal volume of Malassezia restricta inoculum was added to the test samples at different concentrations. Following 48 h-60 h of incubation at 34° C., resazurin fluorescence was analyzed at 530 nm and 590 nm.
Results and conclusion: Results are presented as relative fluorescence intensity compared to DMSO control. MIC is defined as the lowest drug concentration that prevents growth of microorganisms.

[4] = test system: scalp reconstructed human epidermis; test: Malassezia restricta applied topically to scalp reconstructed human epidermis: histology and cytokine ELISA; format: cell-based; details: sclareolide 0.12% topical, two applications
Source text: Objective: Sclareolide anti-inflammatory effect and barrier function prevention was quantified by cytokine quantification and histological observation respectively
Protocol: Malassezia restricta was applied topically to a scalp reconstructed human epidermis. This in vitro model is reconstructed from keratinocytes isolated from scalp skin. More precisely, the location of the epidermis used to isolate keratinocytes is interfollicular epidermis. These interfollicular keratinocytes was harvested and transferred into a cell culture insert and after several days of reconstruction, 100 μl of Malassezia restricta was applied on the top of the epidermis. Two days later, 100 μL sclareolide at a concentration of 0,12% was applied on the top of the epidermis, another application was performed after 24 hours. Ninety-six hours after the beginning of the Malassezia treatment, scalp reconstructed epidermis was stopped to performed histological analysis to observe modifications in the upper layers of the epidermis and the supernatant was harvested to measure inflammatory cytokine release by ELISA method.
In parallel, sclareolide decreased the inflammation induced by Malassezia restricta by the decrease of interleukin-8 release by 40,3% illustrated by FIG. 2.

keratin 10 = test: Keratin 10 immunohistochemistry in biopsies of healthy human abdominal skin in culture; format: cell-based
Method: Objective: The aim of this study is to show the effect of sclareolide on the synthesis of keratin 10 in biopsies of healthy abdominal skin.
Method: keratin 10 was assessed by immunohistochemistry with a specific antibody. […] Control biopsies received only 0.1% DMSO. The immunostaining was performed using paraffin sections incubated in the presence of anti-keratin 10 antibody (rabbit monoclonal, Abcam). After an hour and a half of incubation followed by rinses, the sections were incubated in the presence of the secondary anti-rabbit antibody coupled with a fluorophore (Alexa Fluor® 488, Invitrogen). The sections were then examined under a fluorescence microscope (Nikon Eclipse Ni-E microscope). […] fluorescence was then observed (using NiS-AR Nikon acquisition software) and quantified by image analysis (Volocity® image analysis software, Improvision).
(§1) This effect may be associated with a better quality of the skin barrier function.

epidermal lipids = test: Epidermal lipids, Nile Red staining, in biopsies of healthy human abdominal skin in culture; format: cell-based
Method: Objective: The aim of this study is to show the effect of sclareolide on the synthesis of epidermal lipids in biopsies of healthy abdominal skin.
Method: Epidermal lipids were assessed by fluorescent staining by using the fluorescent dye Nile Red.
[…] Control biopsies received only 0.1% DMSO. The epidermal lipids staining was performed using paraffin sections incubated with 100 nM of Nile Red solution (Sigma) for 10 minutes. The sections were then examined under a fluorescence microscope (Nikon Eclipse Ni-E microscope). Red fluorescence was then observed (using NiS-AR Nikon acquisition software) and quantified by image analysis (Volocity® image analysis software, Improvision).
as §1

[5] = modified RPMI 1640, relative fluorescence vs DMSO control
[6] = sclareolide 0.0025% in 0.1% DMSO, twice a day for 48 hours topically, vs 0.1% DMSO control
[7] = skin biopsies cultures, composition comprising of sclareolide

SMILES: C=C[C@](C)(O)CC[C@@H]1[C@@]2(C)CCCC(C)(C)[C@@H]2CC[C@@]1(C)O [Sclareol]
- Growth, biofilm formation, and yeast-hyphal transition (C. albicans KCTC7965): inhibiting growth, biofilm formation, and yeast-hyphal transition
- Growth, biofilm formation, and yeast-hyphal transition [1]: inhibiting growth, biofilm formation, and yeast-hyphal transition
- Growth, biofilm formation, and yeast-hyphal transition [2]: inhibiting growth, biofilm formation, and yeast-hyphal transition
- Growth, biofilm formation, and yeast-hyphal transition [3]: inhibiting growth, biofilm formation, and yeast-hyphal transition
- Growth, biofilm formation, and yeast-hyphal transition (C. glabrata KCTC7219): inhibiting growth, biofilm formation, and yeast-hyphal transition
- Growth, biofilm formation, and yeast-hyphal transition (C. auris KCTC17809): inhibiting growth, biofilm formation, and yeast-hyphal transition

- MIC (Malassezia restricta; Malassezia restricta, modified RPMI 1640): 0.0625 µg/mL (≈ 0.118 µM)
SMILES: CC(=O)N1CCN(c2ccc(OCC3COC(Cn4ccnc4)(c4ccc(Cl)cc4Cl)O3)cc2)CC1 (stereo not drawn) [ketoconazole, reference compound]

- Concentration at which growth of Malassezia restricta was completely inhibited (MIC) (Malassezia restricta; [5]): 0.12%
SMILES: CC1(C)CCC[C@]2(C)[C@H]3CC(=O)O[C@]3(C)CC[C@@H]12 [sclareolide, Sclareolide]
- Concentration from which growth of Malassezia restricta was significantly inhibited (Malassezia restricta; [5]): 0.015%
- Barrier function / penetration of Malassezia restricta in upper layers of the epidermis (histology) ([4]; 96 h): prevented the disruption of the barrier function and the penetration of Malassezia restricta in the upper layers of the epidermis
- Decrease of interleukin-8 release ([4]; inflammation induced by Malassezia restricta, ELISA of supernatant at 96 h): 40,3%
- Levels of keratin 10 (keratin 10; [6]): increase the levels of keratin 10
- Keratin 10 expression (keratin 10; [7]): increased
- Levels of epidermal lipids (epidermal lipids; [6]): increase the levels of epidermal lipids
- Total lipid content (epidermal lipids; [7]): increased
